Legend:
mAChR4 = target: T1, mAChR4 (Homo sapiens, UniProt P08173); conditions: target not printed with the value; cited from earlier work
T1 sequence (P08173 1-479): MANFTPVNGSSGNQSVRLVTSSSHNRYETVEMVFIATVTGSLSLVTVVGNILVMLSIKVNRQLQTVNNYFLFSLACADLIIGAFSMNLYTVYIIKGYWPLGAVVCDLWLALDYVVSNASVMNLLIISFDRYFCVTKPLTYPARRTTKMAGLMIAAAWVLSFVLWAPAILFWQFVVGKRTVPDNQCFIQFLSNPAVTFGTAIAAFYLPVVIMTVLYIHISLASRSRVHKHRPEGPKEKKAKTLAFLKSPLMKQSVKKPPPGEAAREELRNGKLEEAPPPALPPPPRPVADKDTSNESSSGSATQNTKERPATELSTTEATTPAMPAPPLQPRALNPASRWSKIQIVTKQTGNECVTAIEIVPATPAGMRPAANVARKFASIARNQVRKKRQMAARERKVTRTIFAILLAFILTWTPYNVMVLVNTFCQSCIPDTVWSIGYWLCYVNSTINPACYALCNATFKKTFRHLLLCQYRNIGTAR

hM4 = target: T2, hM4 (Homo sapiens, UniProt P08173); conditions: read-out: hM4 (PAM) EC50; cited from earlier work
T2 sequence (P08173 1-479): T1 sequence (P08173 1-479)

[1] = tested on: small intestinal organoids from WT mice; test: IL-6 stimulation of small intestinal organoids (Chrm4 mRNA, mAChR4 immunoblot); assay type: cell-based, mouse; conditions: IL-6 20 ng/ml in the presence of ethanol for 12 hours
Method: (§1) Real-time quantitative PCR. RNA was extracted from mouse tissues and cDNA was generated 511 (Duan et al., 2019). Primer sequences for mouse genes were obtained from the NIH qPrimerDepot. Gene expression was determined with Sybr Green (Bio-Rad Laboratories) using ABI StepOnePlus real-time PCR system. The qPCR value was normalized to Tbp or 18S housekeeping genes. To quantify the total bacterial load in feces, the 515 qPCR value of 16S rRNA gene for each sample was multiplied by the total amount of DNA (μg) mg^−1 of feces. Published bacterial primer sequences were used for 16S rRNA gene (Maeda et al., 2003) (Table 3).
Small intestinal organoid isolation and culture. Small intestinal crypts were isolated from WT mice, cultured and stained as described 41 and treated with ethanol (10 and 50 mM) and IL-6 (20 ng/ml) (Biolegend) for 12 hours.
Immunoblot analyses. To measure expression levels of mAChR4, GCs were isolated as described above. Immunoblot analysis was performed as described 33 using anti-AChR4 1:1000 (#AMR-004; Alomone labs) and anti-β-actin 1:5000 (Sigma-Aldrich) antibody as loading control. […] Immunoblots were analyzed by densitometry, using Image Lab version 6.0.1 software (Bio-Rad).

cultured GCs = test: IL-6 treatment of cultured goblet cells; assay type: cell-based
[2] = tested on: WT C57BL/6 mice fed ethanol containing Lieber DeCarli diet; test: mAChR4 PAM VU0467154 in chronic ethanol feeding (Lieber DeCarli diet) of WT mice; assay type: in vivo, mouse
From the text: Female mice (age, 8 weeks) were placed on Lieber DeCarli diet for 10 weeks as previously described (Llorente et al., 2017). In brief, the Lieber DeCarli diet comprises Micro Stabilized Rod Liq AC IRR 438 (LD101A; TestDiet), Maltodextrin IRR (9598; TestDiet) and 200-proof ethanol (Koptec). The caloric intake from ethanol was 0 on day 1, 10% of total calories on days 2 and 3, 20% on days 4 and 5, 30% from day 6 until the end of 6 weeks, and 36% until the end of the treatment. Control mice received an isocaloric amount of iso-maltose instead of ethanol.
To enhance GAP formation, WT C57BL/6 mice fed Lieber DeCarli diet containing ethanol or isocaloric iso-maltose for 10 weeks were treated for the last 29 days with the specific mAChR4 PAM VU0467154 (5 mg/kg), which was dissolved in the liquid diet. […]
as §1, with “3). […]” for “3).”
Flow cytometry. Isolation: Small intestine was harvested, and the epithelial cell layer was removed. Pieces were digested in media containing 1 mg/mL collagenase (Millipore Sigma), 0.1 U/mL dispase (Worthington Biochem) and 0.1 mg/mL DNase I (Millipore Sigma) at 37° C. at 150 rpm for 30 minutes. A 40% and 80% Percoll gradient was used to collect the lymphoid fractions at the interphase. Flow cytometry: LP-immune cells were pelleted and blocked with anti-mouse CD16/32 antibody (Thermo Fisher) for 15 minutes. Cells were divided to perform 3 different panels to analyze APCs, ILC3 and Tregs.
Stimulation and staining: To stimulate IL-23 secretion by LP-DCs, cells were re-stimulated in vitro with 100 ng/ml flagellin (Invivogen) for 2.5 hours in the presence of 0.7 μl/ml BD GolgiStop™ (BD Bioscience) to accumulate cytokines and/or proteins. The murine APC panel consisted of CD45.2 (V500, clone 104, BD), CD11c (FITC, clone N418, ThermoFisher), MHC Class II (I-A/I-E) (PE, clone M5/114. 15.2, ThermoFisher), CD11b (PerCP544 Cy5.5, clone M1/70, BD), CD103 (APC-R700, clone M290, BD), CX3CR1 (BV421, clone SA011F11, BioLegend), fixable viability stain (FVS) (575V, BD), IL-10 (BV711, clone JES5-16E3, BD) and IL-23 p19 (AF647, clone N71-1183).
Immunoblot analyses. To measure expression levels of mAChR4, GCs were isolated as described above. Immunoblot analysis was performed as described 33 using anti-AChR4 1:1000 (#AMR-004; Alomone labs) and anti-β-actin 1:5000 (Sigma-Aldrich) antibody as loading control. Protein from proximal small intestine was extracted and immunoblot analysis was performed using anti-Reg3g 1:500 (ab198216, Abcam), anti-Reg3b 1:500 (ABIN1870289, Antibodies online), and anti-IL-10 1:1000 (sc-365858; Santa Cruz Biotechnology) antibodies. Stain-free imaging technology using polyacrylamide gels (BioRad) containing a proprietary trihalo compound to make proteins fluorescent, was employed to calculate total protein. Immunoblots were visualized with a charged coupling device camera in a luminescent image analyzer (Gel-Doc; Bio-Rad). Immunoblots were analyzed by densitometry, using Image Lab version 6.0.1 software (Bio-Rad).

[3] = Bubser 2014; Pancani 2015; Gould 2018; cited from earlier work
rodent model = conditions: systemic administration; Walker et al., 2020; cited from earlier work
[4] = Bubser 2014; Pancani 2015; Gould 2018; cited from earlier work; remark: listed apart in the source
[5] = ethanol diet 10 weeks, 5 mg/kg in the diet during the last 29 days
[6] = ethanol fed mice, anaerobic culture
[7] = ethanol fed mice, cells stimulated with flagellin 100 ng/ml 2.5 hours
[8] = ethanol fed mice, proximal small intestine

## Cc1cc2c(nc1N1CCC(Oc3ccc4c(c3)COC4)CC1)CNC2=O [MK-4710]
mAChR4
  IC50: 0.017 µM

## Cc1cc(C)c2c(N)c(C(=O)NC3CN(c4cccnc4)C3)sc2n1 [PT-3763]
hM4
  EC50: 0.045 µM

## IL-6: cytokine (Biolegend) used at 20 ng/ml on organoids
[1]
  mAChR4 expression (Chrm4 mRNA, mAChR4 protein): induced
Cultured GCs
  mAChR4 expression: induced

## Cc1nnc2sc(C(=O)NC3CN(c4cccnc4)C3)c(N)c2c1C [PT-1148]
hM4
  EC50: 0.003 µM

## Cc1nnc2sc(C(=O)NCc3ccc(S(=O)(=O)C(F)(F)F)cc3)c(N)c2c1C [VU0467154]
[2]; [5]
  ethanol-induced liver inflammation (hepatic Cxcl1 mRNA): protected
  ethanol-induced liver injury (plasma ALT, H&E): protected
  ethanol-induced steatosis (ORO-stained liver sections): protected
[2]; ethanol diet 10 weeks, 5 mg/kg in the diet during the last 29 days, small intestine
  ethanol-induced GAP closure (number of GAPs per villus): reduced
[2]; [6]
  ethanol mediated bacterial translocation to MLN (CFU): prevented
  ethanol mediated bacterial translocation to liver (CFU): prevented
[2]; [7]
  Frequencies of CD103+ CD11b+ DC populations: increased
  Frequencies of LP-APCs (CD11c+, MHCII+): increased
[2]; [8]
  intestinal IL-10 expression (immunoblot): induced
  intestinal Reg3b expression (immunoblot): induced
  intestinal Reg3g expression (immunoblot): induced
[3]
  oral bioavailability: excellent
Rodent model
  ethanol seeking and consumption: reduced
[4]
  gastrointestinal motility side effects: no gastrointestinal motility side effects

## CCOC(=O)N1CCCC(N2CCC(c3cccnc3OC)CC2)CC1 (centres unmarked) [PT-6950]
hM4
  EC50: 0.02 µM

From patent US20250302831A1, “THERAPY FOR ALCOHOL-RELATED LIVER DISEASE” (THE REGENTS OF THE UNIVERSITY OF CALIFORNIA, priority 2021, published 2025)
